The conditions of data set [1]: cited from earlier work.
The nature of data set [2]: solubility of griseofulvin in different solvents. In kind it is physicochemical. The conditions noted are these: mixtures with carriers.

“Also recorded” adds a separate entry of the source.

Consider `COC1=CC(=O)C[C@@H](C)[C@]12Oc1c(Cl)c(OC)cc(OC)c1C2=O` [griseofulvin, Griseofulvin], for which the solubility in water entry in data set [1] was “insoluble in water”. Moreover, in data set [2], the “Solubility of griseofulvin in different solvents” value is “higher in admixture with high molecular weight substances, such as herbal agents (e.g. tea tree oil), but not in admixtures with saccharides or alcohol; also recorded: higher in mixtures with high molecular weight carriers such as herbal agents, but not with saccharides or alcohol”.
